From PubChem BioAssay (NCI)
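Step 1: Grow cells in 96-well plates. Step 2: Expose to compound for 48 hours at 5 concentrations. Step 3: Interpolate endpoints linearly; if unreached, use highest concentration. At the GI50, growth is halved. Definition used: TGI = concentration required for complete inhibition of growth.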

Columns and labels:
Test in all cases: growth of human tumour cells (NCI), 48 h
[1] = test system: OVCAR-8 ovarian
[2] = test system: SK-OV-3 ovarian
[3] = test system: SNB-75 CNS
[4] = test system: HT29 colon
[5] = test system: 786-0 renal
[6] = test system: KM12 colon
[7] = test system: DLD-1 colon
[8] = test system: UO-31 renal
[9] = test system: COLO 205 colon
[10] = test system: DMS 114 small cell lung
[11] = test system: SF-539 CNS
[12] = test system: HOP-92 NSCLC
[13] = test system: U251 CNS
[14] = test system: RPMI-8226 leukemia
[15] = test system: LOX IMVI melanoma
[16] = test system: HCT-15 colon
[17] = test system: M14 melanoma
[18] = test system: NCI-H23 lung
[19] = test system: SW-620 colon
[20] = test system: K-562 leukemia
[21] = test system: RXF 393 renal
[22] = test system: LXFL 529 NSCLC
[23] = test system: SK-MEL-28 melanoma
[24] = test system: SK-MEL-5 melanoma
[25] = test system: M19-MEL melanoma
[26] = test system: UACC-62 melanoma
[27] = test system: HCC-2998 colon
[28] = test system: SNB-19 CNS
[29] = test system: SN12C renal
[30] = test system: EKVX NSCLC
[31] = test system: DMS 273 small cell lung
[32] = test system: UACC-257 melanoma
[33] = test system: NCI-H522 lung
[34] = test system: HOP-18 NSCLC
[35] = test system: CCRF-CEM leukemia
[36] = test system: SNB-78 CNS
[37] = test system: HCT-116 colon
[38] = test system: CAKI-1 renal
[39] = test system: TK-10 renal
[40] = test system: MOLT-4 leukemia
[41] = test system: SF-295 CNS
[42] = test system: MALME-3M melanoma
[43] = test system: IGROV1 ovarian
[44] = test system: NCI-H226 lung
[45] = test system: A549 NSCLC
[46] = test system: HL-60(TB) leukemia
[47] = test system: OVCAR-3 ovarian
[48] = test system: HOP-62 NSCLC
[49] = test system: NCI-H460 lung
[50] = test system: SF-268 CNS
[51] = test system: OVCAR-5 ovarian
[52] = test system: SK-MEL-2 melanoma
[53] = test system: ACHN renal
[54] = test system: A498 renal
[55] = test system: KM20L2 colon

With `Cc1[nH]nc2c1C(=O)C=C(N(CCO)c1ccccc1)C2=O` the TGI [1] was > 100 µM, the TGI [2] was > 100 µM and the TGI [3] was > 100 µM. The TGI [4] was > 100 µM, the TGI [5] was > 100 µM and the TGI [6] was > 100 µM. For the same compound, the TGI [7] was > 100 µM, the TGI [8] was > 100 µM and the TGI [9] was > 100 µM. The TGI [10] was > 100 µM, the TGI [11] was > 100 µM and the TGI [12] was > 100 µM. For the same compound, the TGI [13] was > 100 µM, the TGI [14] was > 100 µM and the TGI [15] was > 100 µM. The TGI [16] was > 100 µM, the TGI [17] was > 100 µM and the TGI [18] was > 100 µM. The TGI [19] was > 100 µM, the TGI [20] was > 100 µM and the TGI [21] was > 100 µM. For the same compound, the TGI [22] was > 100 µM, the TGI [23] was > 100 µM and the TGI [24] was > 100 µM. For the same compound, the TGI [25] was > 100 µM, the TGI [26] was > 100 µM and the TGI [27] was > 100 µM. For the same compound, the TGI [28] was > 100 µM, the TGI [29] was > 100 µM and the TGI [30] was > 100 µM. The TGI [31] was > 100 µM, the TGI [32] was > 100 µM and the TGI [33] was > 100 µM. The TGI [34] was > 100 µM, the TGI [35] was > 100 µM and the TGI [36] was > 100 µM. For the same compound, the TGI [37] was > 100 µM, the TGI [38] was > 100 µM and the TGI [39] was > 100 µM. The TGI [40] was > 100 µM, the TGI [41] was > 100 µM and the TGI [42] was > 100 µM. The TGI [43] was > 100 µM, the TGI [44] was > 100 µM and the TGI [45] was > 100 µM. For the same compound, the TGI [46] was > 100 µM and the TGI [47] was > 100 µM.
`O=[N+]([O-])[O-].O=[N+]([O-])[O-].[Au].[Au].c1ccc([P-]c2ccccc2)cc1.c1ccc([P-]c2ccccc2)cc1` was tested, and the GI50 [1] was 35.3 µM, the TGI [1] was > 100 µM and the GI50 [2] was > 100 µM. The TGI [2] was > 100 µM, the GI50 [48] was > 100 µM and the TGI [48] was > 100 µM. For the same compound, the GI50 [3] was 51.4 µM, the TGI [3] was > 100 µM and the GI50 [49] was 20.4 µM. The TGI [49] was > 100 µM, the GI50 [4] was 71.3 µM and the TGI [4] was > 100 µM. The GI50 [5] was 19.2 µM, the TGI [5] was 58.7 µM and the GI50 [6] was 46.3 µM. The TGI [6] was > 100 µM, the GI50 [7] was 47 µM and the TGI [7] was > 100 µM. For the same compound, the GI50 [8] was 25.9 µM, the TGI [8] was 47.5 µM and the GI50 [9] was 28 µM. The TGI [9] was > 100 µM, the GI50 [10] was 37.5 µM and the TGI [10] was > 100 µM. For the same compound, the GI50 [11] was 43.9 µM, the TGI [11] was 77.7 µM and the GI50 [12] was 26.6 µM. The TGI [12] was 51.5 µM, the GI50 [13] was 36.6 µM and the TGI [13] was > 100 µM. For the same compound, the GI50 [14] was 14.3 µM, the TGI [14] was > 100 µM and the GI50 [15] was 35.3 µM. The TGI [15] was > 100 µM, the GI50 [50] was 65.1 µM and the TGI [50] was > 100 µM. For the same compound, the GI50 [16] was 27 µM, the TGI [16] was > 100 µM and the GI50 [17] was 22.6 µM. The TGI [17] was 52.9 µM, the GI50 [18] was 36 µM and the TGI [18] was > 100 µM. For the same compound, the GI50 [19] was 38.7 µM, the TGI [19] was > 100 µM and the GI50 [51] was > 100 µM. The TGI [51] was > 100 µM, the GI50 [20] was 23.6 µM and the TGI [20] was > 100 µM. The GI50 [22] was 14.2 µM, the TGI [22] was 32.7 µM and the GI50 [23] was 29.3 µM. For the same compound, the TGI [23] was 75.6 µM, the GI50 [24] was 34.1 µM and the TGI [24] was 88.8 µM. The GI50 [26] was 30 µM, the TGI [26] was 65.3 µM and the GI50 [27] was 71.8 µM. For the same compound, the TGI [27] was > 100 µM, the GI50 [52] was 31.1 µM and the TGI [52] was 58.1 µM. The GI50 [28] was > 100 µM, the TGI [28] was > 100 µM and the GI50 [30] was 33.4 µM. For the same compound, the TGI [30] was 63 µM, the GI50 [31] was 39.2 µM and the TGI [31] was > 100 µM. The GI50 [53] was 17 µM, the TGI [53] was 33.9 µM and the GI50 [32] was 26.3 µM. It also gave a TGI [32] of 62.7 µM, a GI50 [33] of 3.64 µM and a TGI [33] of 46.3 µM. It also gave a GI50 [34] of 18.5 µM, a TGI [34] of 37.6 µM and a GI50 [35] of 18.8 µM. For the same compound, the TGI [35] was > 100 µM, the GI50 [54] was > 100 µM and the TGI [54] was > 100 µM. For the same compound, the GI50 [36] was 61 µM, the TGI [36] was > 100 µM and the GI50 [37] was 44.2 µM. The TGI [37] was > 100 µM, the GI50 [38] was 26.9 µM and the TGI [38] was 52.7 µM. For the same compound, the GI50 [39] was 23.3 µM, the TGI [39] was 53.6 µM and the GI50 [41] was > 100 µM. The TGI [41] was > 100 µM, the GI50 [42] was 19.8 µM and the TGI [42] was 47 µM. For the same compound, the GI50 [43] was 46.2 µM, the TGI [43] was > 100 µM and the GI50 [45] was 84 µM. The TGI [45] was > 100 µM, the GI50 [46] was 12 µM and the TGI [46] was > 100 µM. The GI50 [55] was 36.4 µM, the TGI [55] was > 100 µM and the GI50 [47] was 26.4 µM. The TGI [47] was 55.4 µM.
